Read-outs that look alike come from different tables or passages of the source. Bridges are numbered along the chain shown (N, C = ends). Where no end group is shown, it is not given here.
Columns and labels:
COVID-19 patients = conditions: 15 ng/kg body weight/min i.v. continuous 72 hours, then 8 hours per day up to day 10; trial still blinded
[1] = tested on: influenzavirus-infected mice; format: in vivo; conditions: for Score of gross lesion examination of lung: day 5 after inoculation
[2] = tested on: influenzavirus-infected mice; format: in vivo
[3] = tested on: influenzavirus PR8(A/PR/8/34 (H1N1)); test: Test II: virus concentration in lung; format: in vivo, mice; conditions: for Virus concentration in lung: right lung, day 5 after inoculation, mean ± SE
[4] = tested on: influenzavirus-infected mice; format: in vivo; conditions: left lung, mean ± SE
[5] = tested on: influenzavirus-infected mice; format: in vivo; remark: listed apart in the source
[6] = tested on: influenzavirus-infected mice; format: in vivo; remark: listed apart in the source
[7] = tested on: influenzavirus-infected mice; format: in vivo; conditions: for Score of gross lesion examination of lung: day 5 after inoculation; remark: listed apart in the source
[8] = tested on: influenzavirus-infected mice; format: in vivo; conditions: mean ± SE
[9] = tested on: influenzavirus-infected mice; format: in vivo; remark: listed apart in the source
[10] = tested on: influenzavirus PR8(A/PR/8/34 (H1N1)); test: Test III: virus concentration in lung; format: in vivo, mice; conditions: administered groups vs control group
[11] = Test II, administered groups vs control group
[12] = 10 nmol/kg i.v., day 0 after inoculation
[13] = 10 nmol/kg i.v., day 1 after inoculation
[14] = 10 nmol/kg i.v., day 2 after inoculation
[15] = 10 nmol/kg i.v., day 3 after inoculation
[16] = 10 nmol/kg i.v., day 4 after inoculation
[17] = 10 nmol/kg i.v., day 5 after inoculation
[18] = 10 nmol/kg tail vein once per day, 1 day before inoculation, mean ± SE
[19] = 100 nmol/kg i.v., day 0 after inoculation
[20] = 100 nmol/kg i.v., day 1 after inoculation
[21] = 100 nmol/kg i.v., day 2 after inoculation
[22] = 100 nmol/kg i.v., day 3 after inoculation
[23] = 100 nmol/kg i.v., day 4 after inoculation
[24] = 100 nmol/kg i.v., day 5 after inoculation
[25] = 100 nmol/kg tail vein once per day, 1 day before inoculation, mean ± SE
[26] = 25 nmol/kg i.v., day 1 after inoculation
[27] = 25 nmol/kg i.v., day 2 after inoculation
[28] = 25 nmol/kg i.v., day 3 after inoculation
[29] = 25 nmol/kg i.v., day 4 after inoculation
[30] = 25 nmol/kg i.v., day 5 after inoculation
[31] = 25 nmol/kg tail vein once per day, day 0 after inoculation, mean ± SE
[32] = 250 nmol/kg i.v., day 1 after inoculation
[33] = 250 nmol/kg i.v., day 2 after inoculation
[34] = 250 nmol/kg i.v., day 3 after inoculation
[35] = 250 nmol/kg i.v., day 4 after inoculation
[36] = 250 nmol/kg i.v., day 5 after inoculation
[37] = 250 nmol/kg tail vein once per day, day 0 after inoculation, mean ± SE

## CC[C@H](C)[C@H](NC(=O)[C@H](CCC(N)=O)NC(=O)[C@H](Cc1c[nH]cn1)NC(=O)[C@H](C)NC(=O)[C@H](CC(C)C)NC(=O)[C@H](CCCCN)NC(=O)[C@H](CCC(N)=O)NC(=O)[C@@H](NC(=O)[C@@H](NC(=O)[C@@H]1CSSC[C@H](NC(=O)CNC(=O)[C@H](Cc2ccccc2)NC(=O)[C@H](CO)NC(=O)[C@H](CCCNC(=N)N)NC(=O)[C@H](CC(C)C)NC(=O)CNC(=O)[C@H](CCC(N)=O)NC(=O)[C@H](Cc2ccccc2)NC(=O)[C@H](CC(N)=O)NC(=O)[C@H](CC(N)=O)NC(=O)[C@H](CCSC)NC(=O)[C@H](CO)NC(=O)[C@H](CCC(N)=O)NC(=O)[C@H](CCCNC(=N)N)NC(=O)[C@@H](N)Cc2ccc(O)cc2)C(=O)N[C@@H](CCCNC(=N)N)C(=O)N[C@@H](Cc2ccccc2)C(=O)NCC(=O)N[C@@H]([C@@H](C)O)C(=O)N1)[C@@H](C)O)C(C)C)C(=O)N[C@@H](Cc1ccc(O)cc1)C(=O)N[C@@H](CCC(N)=O)C(=O)N[C@@H](Cc1ccccc1)C(=O)N[C@H](C(=O)N[C@@H](CC(=O)O)C(=O)N[C@@H](CCCCN)C(=O)N[C@@H](CC(=O)O)C(=O)N[C@@H](CCCCN)C(=O)N[C@@H](CC(=O)O)C(=O)N[C@@H](CC(N)=O)C(=O)N[C@H](C(=O)N[C@@H](C)C(=O)N1CCC[C@H]1C(=O)N[C@@H](CCCNC(=N)N)C(=O)N[C@@H](CO)C(=O)N[C@@H](CCCCN)C(=O)N[C@H](C(=O)N[C@@H](CO)C(=O)N1CCC[C@H]1C(=O)N[C@@H](CCC(N)=O)C(=O)NCC(=O)N[C@@H](Cc1ccc(O)cc1)C(N)=O)[C@@H](C)CC)C(C)C)[C@@H](C)O [adrenomedullin]
COVID-19 patients
  adverse events: no adverse event directly caused by AM has been reported

## [Ala-44]hAM(13-52): adrenomedullin analog: peptide of SEQ ID NO: 17, amidated at the C-terminus, disulfide bond formed by two cysteine residues (SFGCRFGTCTVQKLAHQIYQFTDKDKDNVAPASKISPQGY-NH2; disulfide 4-9 (inferred))
[1]; Left lung, 10 nmol/kg i.v. once per day, mean ± SE
  Score of gross lesion examination of lung: 2.8 ± 0.2
[1]; Left lung, 100 nmol/kg i.v. once per day
  Score of gross lesion examination of lung: 2.6 ± 0.2
[1]; Right lung, 10 nmol/kg i.v. once per day
  Score of gross lesion examination of lung: 2.9 ± 0.1
[1]; Right lung, 100 nmol/kg i.v. once per day
  Score of gross lesion examination of lung: 2.5 ± 0.2
[1]; [11]
  gross lesion formation in the lung: significantly suppressed
[2]; [12]
  Body weight: 15.7 ± 0.3
[2]; [13]
  Body weight: 16.1 ± 0.3
[2]; [14]
  Body weight: 15.1 ± 0.3
[2]; [15]
  Body weight: 14.0 ± 0.3
[2]; [16]
  Body weight: 13.2 ± 0.2
[2]; [17]
  Body weight: 12.8 ± 0.2
[2]; [18]
  Body weight: 15.8 ± 0.2
[2]; [19]
  Body weight: 15.8 ± 0.2
[2]; [20]
  Body weight: 16.2 ± 0.3
[2]; [21]
  Body weight: 15.5 ± 0.2
[2]; [22]
  Body weight: 14.6 ± 0.3
[2]; [23]
  Body weight: 13.6 ± 0.2
[2]; [24]
  Body weight: 12.9 ± 0.1
[2]; [25]
  Body weight: 15.8 ± 0.2
[3]; 10 nmol/kg i.v. once per day
  Virus concentration in lung: 53.0 ± 3.0 ×10^4 PFU/right lung
[3]; 100 nmol/kg i.v. once per day
  Virus concentration in lung: 43.3 ± 4.6 ×10^4 PFU/right lung
[3]; [11]
  virus concentration in the lung: significantly decreased
[4]; 10 nmol/kg i.v. once per day
  Score of histopathological examination of lung: Pneumonia score: 8.9 ± 0.4
[4]; 100 nmol/kg i.v. once per day
  Score of histopathological examination of lung: Pneumonia score: 9.0 ± 0.5
[5]; [12]
  General condition score: 0.0 ± 0.0
[5]; [13]
  General condition score: 0.0 ± 0.0
[5]; [14]
  General condition score: 0.2 ± 0.0
[5]; [15]
  General condition score: 0.5 ± 0.0
[5]; [16]
  General condition score: 0.8 ± 0.0
[5]; [17]
  General condition score: 1.0 ± 0.0
[5]; [18]
  General condition score: 0.0 ± 0.0
[5]; [19]
  General condition score: 0.0 ± 0.0
[5]; [20]
  General condition score: 0.0 ± 0.0
[5]; [21]
  General condition score: 0.1 ± 0.0
[5]; [22]
  General condition score: 0.5 ± 0.0
[5]; [23]
  General condition score: 0.8 ± 0.0
[5]; [24]
  General condition score: 1.0 ± 0.0
[5]; [25]
  General condition score: 0.0 ± 0.0

## 60K PEG-AM: adrenomedullin derivative having a PEG group with a weight-average molecular weight of 60 kDa, prepared according to WO 2017/047788
[6]; [26]
  General condition score: 0.0 ± 0.0
[6]; [27]
  General condition score: 0.1 ± 0.0
[6]; [28]
  General condition score: 0.5 ± 0.0
[6]; [29]
  General condition score: 0.7 ± 0.1
[6]; [30]
  General condition score: 0.9 ± 0.1
[6]; [31]
  General condition score: 0.0 ± 0.0
[6]; [32]
  General condition score: 0.0 ± 0.0
[6]; [33]
  General condition score: 0.1 ± 0.0
[6]; [34]
  General condition score: 0.5 ± 0.0
[6]; [35]
  General condition score: 0.8 ± 0.0
[6]; [36]
  General condition score: 1.0 ± 0.0
[6]; [37]
  General condition score: 0.0 ± 0.0
[7]; Left lung, 25 nmol/kg i.v. once per day, mean ± SE
  Score of gross lesion examination of lung: 2.0 ± 0.5
[7]; Left lung, 250 nmol/kg i.v. once per day
  Score of gross lesion examination of lung: 2.4 ± 0.2
[7]; Right lung, 25 nmol/kg i.v. once per day
  Score of gross lesion examination of lung: 2.0 ± 0.5
[7]; Right lung, 250 nmol/kg i.v. once per day
  Score of gross lesion examination of lung: 1.9 ± 0.3
[7]; Test III, administered groups vs control group
  gross lesion formation in the lung: significantly suppressed
[8]; Table 14, 25 nmol/kg i.v. once per day
  Score of histopathological examination of lung: Pneumonia score: 8.3 ± 1.5
[8]; Table 14, 250 nmol/kg i.v. once per day
  Score of histopathological examination of lung: Pneumonia score: 9.4 ± 0.6
[8]; Table 15, 25 nmol/kg i.v. once per day
  Score of histopathological examination of lung: Pneumonia score: 8.3 ± 1.5
[8]; Table 15, 250 nmol/kg i.v. once per day
  Score of histopathological examination of lung: Pneumonia score: 9.4 ± 0.6
[9]; [26]
  Body weight: 16.4 ± 0.4
[9]; [27]
  Body weight: 16.3 ± 0.4
[9]; [28]
  Body weight: 14.5 ± 0.4
[9]; [29]
  Body weight: 13.9 ± 0.5
[9]; [30]
  Body weight: 13.9 ± 0.5
[9]; [31]
  Body weight: 16.4 ± 0.4
[9]; [32]
  Body weight: 16.1 ± 0.4
[9]; [33]
  Body weight: 15.8 ± 0.5
[9]; [34]
  Body weight: 14.3 ± 0.4
[9]; [35]
  Body weight: 13.7 ± 0.3
[9]; [36]
  Body weight: 13.3 ± 0.3
[9]; [37]
  Body weight: 16.4 ± 0.3
[10]
  virus concentration in the lung: significantly decreased
